Results published in patent publication US20120122728A1, “Method Of Screening Drugs For Reversal Of Amyloid Beta Neurotoxicity” (UNIVERSITY OF CENTRAL FLORIDA RESEARCH FOUNDATION, INC., priority 2009, published 2012).

Key:
Aβ oligomerization [1] = target: T1, Aβ oligomerization (Homo sapiens, UniProt P05067); conditions: literature [20], compared with Ibuprofen; cited from earlier work
[2] = tested on: cultured embryonic rat hippocampal neurons; assay: Whole cell patch clamp electrophysiology of hippocampal neurons exposed to Aβ; assay type: cell-based
Source text: (§1) All applied procedures were approved by the Institutional Animal Care and Use Committee of UCF. The protocol was modified from previously published work concerning embryonic rat hippocampal cultures. Pregnant rats, 18 days in gestation, obtained from Charles River were euthanized with carbon dioxide and the fetuses were collected in ice cold Hibernate E (BrainBits)/B27/Glutamax™/Antibiotic-Antimycotic (Invitrogen) (dissecting medium). Each fetus was decapitated and the whole brain was transferred to fresh ice cold dissecting medium. After isolation, the hippocampi were collected in a fresh tube of dissecting medium. Hippocampal neurons were obtained by triturating the tissue using a Pasteur pipette. In order to remove any debris from damaged cells the 1 ml cell suspension was layered over a 4 ml step gradient (Optipep diluted 0.505:0.495 (v/v) with the dissecting medium and then made to 15%, 20%, 25% and 35% (v/v) in the dissecting medium) followed by centrifugation for 15 min at 800 g and 4 uC. After centrifugation, one strong band of cells was obtained. This band of cells was resuspended in culture medium (Neurobasal/B27/Glutamax™/Antibiotic-Antimycotic) and plated at a density of 100 cells/mm2 on DETA coated coverslips for patch clamp electrophysiology and at 200 cells/mm2 on the MEAs.
(§2) Different concentrations of Aβ (1-42) (Bachem) aggregates were prepared according to the protocol by Klein [1] in Neurobasal medium without phenol red, and quantified using Immunoblots. Curcumin (Cayman Chemicals) was prepared and the concentration chosen according to previously published protocols.
For patch clamp electrophysiology experiments, Aβ was administered to the cells on day 10 in vitro and recordings were performed after 24 hrs to obtain baseline values for control cells and Aβ treated cells. In coadministration experiments, a mixture of 100 nM Aβ and 1 mM curcumin was administered for 24 hrs after which patch clamp electrophysiology recordings were performed. In sequential administration, cells were initially exposed to freshly aggregated Aβ alone, followed by replacement of the Aβ solution with curcumin for 24 hrs patch clamp recordings were performed 24 hrs after curcumin treatment. Whole-cell patch clamp recordings were performed at room temperature in a recording chamber on the stage of a Zeiss Axioscope 2 FS Plus upright microscope as described in [44].

amyloid plaque burden = conditions: transgenic APPsw mice; cited from earlier work
[3] = tested on: cultured embryonic rat hippocampal neurons; assay: MEA extracellular recording of spontaneous firing of cultured hippocampal neurons exposed to Aβ; assay type: cell-based; set-up: time until spiking activity of the cells stopped: dose or concentration left out as unconfirmed
Method: The MEAs and accompanying accessories, including the temperature controller, stimulator, amplifier and MC_Rack V 3.5.8 data acquisition software were obtained from ALA Scientific (Westbury, N.Y.) and Multichannel Systems (Reutlingen, Germany). The MEAs comprised of a glass base that acted as a substrate, gold connector contacts and electrodes composed of titanium nitride. Rings were made of Sylgard184 (Dow Corning) (1 part curing base and 10 parts elastomer base, cured at 60 uC for 45 minutes) using glass molds and were attached onto the MEAs after surface modification. Recordings were obtained from 12-16 D. old cultures. Cultures were kept in the incubator between recording sessions.
N-1(3-[trimethoxysilyl]propyl)-diethylenetriamine (DETA) was used to modify the MEAs to enhance cell attachment since the use of synthetic substrates such as DETA, allows for reproducible and precise quantification of the culture substrate properties. Glass coverslips (18 mm diameter, Number 1; VWR) were cleaned in two steps. First, they were soaked in 50/50% HCl (37%) (VWR)/methanol (Sigma), followed by H2SO4 (98%) (VWR) treatment. Next, they were rinsed in double distilled water. The coverslips were then boiled in deionized water, rinsed with acetone, and oven dried. The MEAs were initially cleaned overnight in 2% Tergazyme (Sigma) detergent solution. They were then rinsed in distilled water and plasma cleaned in a plasma cleaner (Harrick Plasma) for 30 mins. The N-1(3-[trimethoxysilyl]propyl)-diethylenetriamine (DETA) (United Chemical Technologies) surface assembled monolayer (SAM) film was formed by the reaction of the cleaned surfaces with a 0.1% (v/v) mixture of the organosilane in toluene. The DETA/toluene solution containing the MEAs was heated to 70 uC, rinsed with toluene, reheated to 70 uC, and then oven dried. Surfaces were characterized using contact angle measurement and X-ray photoelectron spectroscopy (XPS) as described previously.
as §1, §2
In all experiments with MEAs Aβ was administered to the cells on day 16 in vitro. We chose experimental paradigms similar to those used for patch clamp electrophysiology, to study the potential therapeutic effects of curcumin. In coadministration experiments, cells were exposed to a mixture of 100 nM Aβ and 1 mM Curcumin for 24 hrs, and recordings were performed. […]

Aβ oligomerization [4] = target: T1, Aβ oligomerization; assay: Immunoblot of Aβ oligomers; assay type: biochemical; conditions: immunoblot lane 2
Method: Different concentrations of Aβ (1-42) (Bachem) aggregates were prepared according to the protocol by Klein [1] in Neurobasal medium without phenol red, and quantified using Immunoblots. Curcumin (Cayman Chemicals) was prepared and the concentration chosen according to previously published protocols [20].

hippocampal cells = assay: Cell survival (live dead assay, MTT assay) after Aβ treatment; assay type: cell-based, rat
Method: To confirm this finding a MTT assay (3-[4,5-dimethylthiazol-2-yl]-2,5-diphenyl tetrazolium bromide) was performed on the amyloid treated cells and this supported the results obtained with the live dead assay.

[5] = all measured concentrations of Aβ

T1 sequence (P05067 672-713 limits assumed): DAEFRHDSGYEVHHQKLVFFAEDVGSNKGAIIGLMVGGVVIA

Row | Compound | Aβ oligomer formation and Aβ toxicity (Aβ oligomerization [1]) | ameliorating Aβ toxicity, coadministration versus administration after 24 h Aβ ([2]; low doses of curcumin) | amyloid plaque burden (amyloid plaque burden) | time at which drop in firing frequency reached a plateau ([3]; after curcumin and Aβ were coadministered) | time at which recovery of spontaneous firing was observed ([3]; after curcumin was applied post Aβ exposure) | Aβ oligomerization in the presence of Curcumin (Aβ oligomerization [4]) | cell survival compared to the control (hippocampal cells; 100 nM Aβ, 24 hours and 7 days) | cell death (hippocampal cells; high concentrations of Aβ, cells on MEAs) | outward (K+) currents ([2]; 100 nM Aβ, 24 h) | resting membrane potential ([2]; 100 nM Aβ, 24 h) | spontaneous firing ([2]; 100 nM Aβ, 24 h, 30 exposed cells) | time until the cells stopped firing ([3]; 50 nM Aβ, lowest concentration) | time until spiking activity of the cells stopped ([3]; Aβ, highest concentration tested) | effect on spontaneous spiking activity [3, 5] | firing frequency preceding blockade of spontaneous activity [3, 5]
1 | COc1cc(/C=C/C(=O)CC(=O)/C=C/c2ccc(O)c(OC)c2)ccc1O [curcumin] | inhibiting Aβ oligomer formation and Aβ toxicity at significantly lower concentrations than Ibuprofen | more successful in ameliorating Aβ toxicity when coadministered with Aβ | reduce amyloid plaque burden | about 18 hrs | around 10 hrs | apparent inhibition of Aβ oligomerization |  |  |  |  |  |  |  |  | 
2 | Aβ: Amyloid beta (1-42) peptide (Bachem), soluble oligomer aggregates used as neurotoxicant [Aβ (1-42)] |  |  |  |  |  |  | small differences in cell survival compared to the control | high cell death | increase in the amplitude of the outward (K^+) currents | depolarization in the resting membrane potential | no spontaneous action potentials were recorded | about 11 h | about 150 min | completely abolishes spontaneous spiking activity | significant increase in firing frequency
